Experimental data: patent publication US4396606A, “Novel polypeptide analgesics” (Addiction Research Foundation, priority 1979, dated 1983)
pIC50: −log10 of the molar value. Like-named read-outs stand apart in the source and are kept apart here.

How the values were obtained:
[1] = test system: guinea pig ileum myenteric plexus-longitudinal muscle preparation; test: guinea pig ileum myenteric plexus-longitudinal muscle preparation bioassay; assay type: cell-based; details: for pIC50: inhibition of electrically stimulated twitch, geometric mean of several muscle strips
Excerpt: Starting material was 100 g MSH concentrate, the second oxycellulose adsorbate in commercial ACTH production from procine pituitary glands (Schally et al (1962) Endocrinology 71, 164). The initial steps, with 25 g batches, have been described in Lowney et al (1979) Life Sci. 24, 2377: extraction and back-extraction with butanol; separation from β-endorphin on Bio-Gel P6; preparative reversed-phase HPLC on C18 columns, first with a methanol gradient in trifluoroacetic acid (TFA), then with an acetonitrile gradient in Tris buffer at neutrality, followed by elution of the active material with TFA. Every step was monitored by assay on the guinea pig ileum myenteric plexus-longitudinal muscle preparation. Kosterlitz & Waterfled (1975) Ann. Rev. Pharmacol. 15, 29; Schulz & Goldstein (1973) Brit. J. Pharmacol. 48, 655.
(§1) The guinea pig ileum myenteric plexus-longitudinal muscle preparation was used as described in Kosterlitz et al, supra, and Schulz & Goldstein, supra. […] Geometric means of IC50 values from several muscle strips were obtained, with standard errors in log units. Kd values for naloxone as an antagonist were determined from the ratio of IC50 values in the presence and absence of a fixed naloxone concentration. The mouse vas deferens was used as described in Hughes at al (1975) Brit. J. Pharmacol. 53, 371. IC50 and naloxone Kd values were determined as above.
(§2) Effects of dynorphin-(1-13) in two bioassays. […] Naloxone Kd is the apparent dissociation constant of the antagonist, computed from the equation Kd =[…]/(D.R.-1), derived from the mass law for competitive antagonism, where C=concentration of naloxone (here 100 nM), and D.R.=dose ratio of agonist, the ratio of IC50 doses in the presence and absence of the antagonist. The same procedures were followed with the mouse vas deferens. IC50 values are geometric means, with standard errors in log units, number of tissue preparations in parentheses. Kd determinations were based on four tissue preparations. RX-1 is des-arg^6 -dynorphin-(1-13); RS-2 has gly^6 insertion in dynorphin-(1-13).

mouse vas deferens = mouse vas deferens bioassay; assay type: cell-based; details: for pIC50: inhibition of electrically stimulated twitch, geometric mean; for Potency in mouse vas deferens / potency in guinea pig ileum: ratio of potencies in the two bioassays
Protocol: as §1, §2

rat brain membranes = test: radioreceptor binding assay; details: for pIC50: 1 nM radioligand, 1 h at 23°
Protocol: The radioreceptor binding assay used well washed rat brain membranes that had been incubated for 30 min at 37° with 100 mM NaCl to remove bound endogenous ligands. Blume (1978) Proc. Natl. Acad. Sci. 75, 1713. Several radioligands (1 nM final concentration) and competing ligands were tested. Competing ligands were added to the membrane suspension in Tris buffer, pH 7.4 at 23°, and radioligand was added immediately thereafter. Assay volume was 500 μl. After incubation (1 h, 23°), the mixture was chilled, filtered, washed twice, and counted.
Washed membranes from rat brain homogenate, 1 h incubation at 23°. Data are IC50 values (nM) from complete log dose-inhibition curves for inhibition of stereospecific binding of the various radioligands. […] DADLE=D-ala^2 -D-leu^5 -enkephalin. DHM=dihydromorphine.

[2] = test system: antiserum to dynorphin (1-13)-thyroglobulin conjugate; test: dynorphin radioimmunoassay; assay type: binding, rabbit
Excerpt: The subject dynorphin was used for the development of immunoassays, illustrated particularly by a radioimmunoassay. For carrying out the immunoassay, it is necessary to prepare antigens which specifically recognize the oligopeptide, in this case dynorphin. To prepare antigen conjugates, thyroglobulin was conjugated to synthetic dynorphin (1-13). The procedure for preparing the antigen conjugate, injecting the antigen conjugate into animals and isolating the antisera is described as follows.
Synthetic dynorphin (1-13) (3.25 μmoles, 5.2 mg) was dissolved in 2 ml of 100 mM sodium phosphate buffer at neutrality. To the mixture was added with agitation 10^5 cpm of ^125 I-dynorphin to serve as a tracer. After addition of the tracer, 26 mg of thyroglobulin (bovine type 1, Sigma) was added and the mixture cooled in an ice-bath after the thyroglobulin dissolved. A 1:100 dilution with cold water of glutaraldehyde (Sigma, Grade 1, 25% aqueous solution) (1 ml) was added dropwise with stirring in a cold room at 4° and agitation continued for 30 min., followed by warming to room temperature and continuing the stirring for 3 hrs.
Based on the coupling efficiency calculated from the cpm of the dialysis bag residue, after lyophilizing, sufficient of the conjugate was employed to provide 50-100 μg of coupled oligopeptide per rabbit. For six rabbits, the dry material was added to 4 ml of 0.9% NaCl, followed by 4 ml of Freund's incomplete adjuvant. The mixture was uniformly dispersed by drawing up and down in a syringe and needle for 30 mins., the mixture divided into six aliquots and approximately 10 to 12 interdermal injections made in a shaved New Zealand White X San Juan hybrid rabbit. Booster injections were made at two week intervals, with a bleeding taken 10 days after the fourth booster shot, 50 ml of blood being removed from the ear artery, allowed to clot, the serum removed and stored frozen.
In small borosilicate tubes was added 25 μl dynorphin (equimolar to Na ^125 I), 50 μl Na ^125 I, and 20 μl chloramine-T and the mixture allowed to react at room temperature for 30-45 mins. The reaction was terminated by adding 100 μl of sodium metabisulfite. After washing a Sephadex G-15 column (1.2×35 cm) with 0.25 M acetic acid and 0.1% bovine serum albumin, the reaction mixture was added and eluted with the same solvent, collecting 1 ml fractions at a rate of 0.3 ml/min, collecting a total of 50 fractions.
Antiserum: A 1:10 dilution of the antiserum in 50 mM sodium phosphate buffer, pH7.4, containing 50 mM NaCl was diluted 1:10^4 with buffer B;
Dynorphin (1-13) standard: Standards were prepared by taking 10 μl of a 10 mM stock solution in water and adding 990 μl of methanolic HCl to make a […] dynorphin solution followed by 1:100 dilutions to provide the desired series.
^125 I-dynorphin (1-13) trace: The trace stored in 0.25 M acetic acid containing 0.1% BSA was diluted to about 5,000 cpm/100 μl with buffer B.
The procedure for the assay was as follows: All solutions were in ice at the outset and all operations were carried out in ice. In a […] borosilicate glass tube was added in the following order 100 μl of dynorphin (1-13) standard or test sample in methanolic HCl; 100 μl of the antiserum dilution; and 100 μl of the trace, followed by incubation at 0°-4° for 24 hrs. Incubation was terminated with a charcoal mixture prepared by mixing 3 g Norit A, 0.3 g dextran, 15 ml horse serum and the mixture brought to 100 ml with buffer A and mixed for 10 min in a cold room before use. To each incubation tube was added 1 ml of a charcoal mixture, the mixture vortexed followed by incubation for 5 min in a cold room and then centifuged at 5000×g for 15 min in a Beckman Model J6B (4200 rpm). To a 13×100 mm borosilicate glass tube was transferred 850 μl of the supernatant and the tube counted for 5 min in a gamma counter.

[3] = treatment with cyanogen bromide
[4] = ^a = unusually shallow slope, read-out: IC50 for inhibition of stereospecific binding, radioligand 3H-DADLE
[5] = ^a = unusually shallow slope, read-out: IC50 for inhibition of stereospecific binding, radioligand 3H-DHM

H-tyr-gly-gly-phe-leu-arg-arg-ile-arg-pro-lys-leu-lys-OH [Dynorphin-(1-13)]
potency relative to leu-enkephalin ([1]; guinea pig ileum test): about 1000 x | potency relative to normorphine ([1]; guinea pig ileum test): about 350 x | potency relative to β-endorphin ([1]; guinea pig ileum test): about 30 x | pIC50 [1]: 9.20 | persistence in the guinea pig ileum test ([1]; unlike β-endorphin): long persistence | pIC50 (mouse vas deferens): 8.12 | Potency in mouse vas deferens / potency in guinea pig ileum (mouse vas deferens): 0.08 | pIC50 (rat brain membranes; [4]): 7.37 | pIC50 (rat brain membranes; [5]): 7.80 | B/Bo ([2]; 1 × 10^-13 moles dynorphin per assay tube): 15 | B/Bo ([2]; 1 × 10^-14 moles dynorphin per assay tube): 45 | B/Bo ([2]; 1 × 10^-15 moles dynorphin per assay tube): 85 | B/Bo ([2]; 1 × 10^-16 moles dynorphin per assay tube): 100 | B/Bo ([2]; 5 × 10^-13 moles dynorphin per assay tube): 5 | B/Bo ([2]; 5 × 10^-14 moles dynorphin per assay tube): 30 | B/Bo ([2]; 5 × 10^-15 moles dynorphin per assay tube): 75 | B/Bo ([2]; 5 × 10^-16 moles dynorphin per assay tube): 100 | resistance to treatment with cyanogen bromide [3]: relatively resistant

C=CCN1CC[C@]23CCCC[C@H]2[C@H]1Cc1ccc(O)cc13 [levallorphan]
displacement of radioligand (stereospecific saturable binding) (rat brain membranes; 1 μM final concentration): about 70 % of total binding

βc -endorphin [reference compound]
pIC50 [1]: 7.47 | Potency in mouse vas deferens / potency in guinea pig ileum (mouse vas deferens): 1.5 | pIC50 (rat brain membranes; [4]): 8.68 | pIC50 (rat brain membranes; [5]): 8.74

C=CCN1CC[C@@]23CCCC[C@@H]2[C@@H]1Cc1ccc(O)cc13 [dextrallorphan]
effect on radioligand binding (rat brain membranes; 1 μM competing ligand): without effect

Oc1ccc2c3c1O[C@H]1[C@@H](O)C=C[C@H]4[C@@H](C2)NCC[C@@]341 [Normorphine]
pIC50 ([1]; Cavia porcellus): 6.92 | pIC50 (mouse vas deferens; Mus musculus): 6.64 | pIC50 (rat brain membranes; [5]): 8.30 | pIC50 (rat brain membranes; with Na, read-out: IC50 for inhibition of stereospecific binding, radioligand 3H-naloxone +Na): 6.59 | pIC50 (rat brain membranes; without Na, read-out: IC50 for inhibition of stereospecific binding, radioligand 3H-naloxone -Na): 7.68
